{"source": "patent US20240158392A1", "about": "(Janssen Biotech, Inc., priority 2021, published 2024)"}
{"molecular_target": "SIK2 (Homo sapiens, UniProt Q9H0K1)", "sequence (Q9H0K1 whole entry, species assumed)": "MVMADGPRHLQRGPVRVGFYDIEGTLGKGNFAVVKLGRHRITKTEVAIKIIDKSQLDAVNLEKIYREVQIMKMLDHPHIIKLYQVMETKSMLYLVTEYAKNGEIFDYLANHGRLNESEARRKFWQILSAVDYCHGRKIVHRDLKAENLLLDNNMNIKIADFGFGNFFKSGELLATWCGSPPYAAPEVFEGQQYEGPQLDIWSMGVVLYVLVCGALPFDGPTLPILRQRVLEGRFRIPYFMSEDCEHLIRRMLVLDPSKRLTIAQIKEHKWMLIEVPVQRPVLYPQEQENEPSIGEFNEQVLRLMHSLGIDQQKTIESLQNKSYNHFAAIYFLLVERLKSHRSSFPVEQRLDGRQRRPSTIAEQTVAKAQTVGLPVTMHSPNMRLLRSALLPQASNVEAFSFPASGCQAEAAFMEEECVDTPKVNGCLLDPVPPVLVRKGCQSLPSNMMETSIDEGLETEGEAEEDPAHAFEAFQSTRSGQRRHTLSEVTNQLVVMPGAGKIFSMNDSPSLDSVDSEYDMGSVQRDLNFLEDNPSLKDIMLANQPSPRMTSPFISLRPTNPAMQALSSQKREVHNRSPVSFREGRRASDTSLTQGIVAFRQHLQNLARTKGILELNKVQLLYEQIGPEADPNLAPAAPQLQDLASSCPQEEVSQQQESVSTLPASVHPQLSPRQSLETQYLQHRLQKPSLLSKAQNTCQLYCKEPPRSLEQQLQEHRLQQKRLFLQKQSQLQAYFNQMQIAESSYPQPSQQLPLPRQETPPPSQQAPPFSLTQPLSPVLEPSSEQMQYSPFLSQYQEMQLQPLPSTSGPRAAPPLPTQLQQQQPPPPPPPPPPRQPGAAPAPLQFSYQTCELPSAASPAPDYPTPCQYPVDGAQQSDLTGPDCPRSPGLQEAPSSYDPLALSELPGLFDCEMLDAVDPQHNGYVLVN", "assay": "SIK2 Enzymatic Assay High Version 2 (High ATP)", "format": "biochemical", "conditions": "not given", "procedure": "(§1) All steps were performed at room temperature. Compounds were pre-plated onto an assay plate using an Echo acoustic dispenser (Labcyte, E550 or E555) at 80 nL per well. Enzyme prepared in assay buffer at 6 nM (2× final concentration) was added at 4 μL per well using the Multidrop Combi (Thermo Fisher—used for all additions in this assay) to the assay plate, spun for 1 min at 1000 rpm (Allegra 6KR Beckman Coulter centrifuge), and incubated with compound for 30 minutes. Assay buffer containing 6 mM ATP and 400 μM HDAC5tide (2× of final concentration for each substrate) was added at 4 μL per well to the assay plate and then spun as above and incubated for 2 hours. […] ADP-Glo Max Reagent (prepared and aliquoted as per manufacturer instructions) was then added at 8 μL per well, spun and incubated for 2 hours. ADP-Glo Max Detection (prepared and aliquoted as per manufacturer instructions) was added at 8 μL per well to the assay plate, which was spun and incubated for 1 hour. The plate is then read on the Pherastar (BMG Labtech) using a luminescence read. Gain is set between 2200-2500.", "units": {"IC50": "µM"}}
{"smiles": "Cc1cc(Nc2cc3cc(-c4cc(C)ncc4O[C@H]4C[C@H]5COC[C@@H](C4)N5)ccn3n2)ncn1", "note": "[Example 396, 5-[2-methyl-5-[[(1R,5S,7s)-3-oxa-9-azabicyclo[3.3.1]nonan-7-yl]oxy]-4-pyridyl]-N-(6-methylpyrimidin-4-yl)pyrazolo[1,5-a]pyridin-2-amine]", "IC50": 0.0011}
{"smiles": "CNC(=O)c1cccc(Nc2cc3cc(-c4cc(C)ncc4O[C@H]4C[C@H]5COC[C@@H](C4)N5C)ccn3n2)n1", "note": "[Example 407, N-methyl-6-[[5-[2-methyl-5-[[(1S,5R,7s)-9-methyl-3-oxa-9-azabicyclo[3.3.1]nonan-7-yl]oxy]-4-pyridyl]pyrazolo[1,5-a]pyridin-2-yl]amino]pyridine-2-carboxamide]", "IC50": 0.00849}
{"smiles": "Cc1cc(-c2ccn3nc(Nc4cc(C(F)(F)F)nn4C)cc3c2)c(O[C@H]2C[C@H]3COC[C@@H](C2)N3)cn1", "note": "[Example 403, 5-(5-(((1R,5S,7s)-3-oxa-9-azabicyclo[3.3.1]nonan-7-yl)oxy)-2-methylpyridin-4-yl)-N-(1-methyl-3-(trifluoromethyl)-1H-pyrazol-5-yl)pyrazolo[1,5-a]pyridin-2-amine]", "IC50": 0.0143}
{"smiles": "Cc1cc(-c2cn3cc(Nc4cc(C)nc(C)n4)nc3cn2)c(O[C@H]2C[C@H]3COC[C@@H](C2)N3)cn1", "note": "(single isomer, unassigned) [Example 348]", "IC50": "< 0.000847"}
{"smiles": "Cc1cc(-c2ccn3nc(Nc4ccnc(C)n4)cc3c2)c(O[C@H]2C[C@H]3COC[C@@H](C2)N3)cn1", "note": "[Example 372, 5-[2-methyl-5-[[(1S,5R,7s)-3-oxa-9-azabicyclo[3.3.1]nonan-7-yl]oxy]-4-pyridyl]-N-(2-methylpyrimidin-4-yl)pyrazolo[1,5-a]pyridin-2-amine]", "IC50": "< 0.000847"}
{"smiles": "Cc1cc(-c2ccn3nc(NC(=O)C4CC4)cc3c2)c(O[C@@H]2[C@@H]3CO[C@H]2CN3)cn1", "note": "[Example 165, N-(5-(5-(((1S,4S,7R)-2-oxa-5-azabicyclo[2.2.1]heptan-7-yl)oxy)-2-methylpyridin-4-yl)pyrazolo[1,5-a]pyridin-2-yl)cyclopropanecarboxamide]", "IC50": 0.00823}
{"smiles": "Cc1cc(-c2ccn3nc(NC(=O)C4CC4)cc3c2)c(O[C@H]2C[C@@H](N)C2)cn1", "note": "[Example 464, N-(5-(5-((1s,3s)-3-aminocyclobutoxy)-2-methylpyridin-4-yl)pyrazolo[1,5-a]pyridin-2-yl)cyclopropanecarboxamide]", "IC50": 0.0116}
{"smiles": "O=C(Nc1cc2cc(-c3cc(C(F)F)ccc3O[C@H]3C[C@H]4COC[C@@H](C3)N4)ccn2n1)C1CC1", "note": "[Example 481, N-[5-[5-(difluoromethyl)-2-[[(1R,5S)-3-oxa-9-azabicyclo[3.3.1]nonan-7-yl]oxy]phenyl]pyrazolo[1,5-a]pyridin-2-yl]cyclopropanecarboxamide]", "IC50": "< 0.000847"}
{"smiles": "Cc1cc(-c2ccn3nc(Nc4cc(C)nc(C)n4)cc3c2)c(OC[C@@H]2COC(=O)N2)cn1", "note": "[Example 342, (4R)-4-[[4-[2-[(2,6-dimethylpyrimidin-4-yl)amino]pyrazolo[1,5-a]pyridin-5-yl]-6-methyl-3-pyridyl]oxymethyl]oxazolidin-2-one]", "IC50": 0.032}
{"molecular_target": "SIK2 (Homo sapiens, UniProt Q9H0K1)", "assay": "SIK2 Enzymatic Assay High Version 2 (High ATP)", "format": "biochemical", "conditions": "enzyme 6 nM, 6 mM ATP and 400 μM HDAC5tide (each 2× final concentration); 30 minutes pre-incubation, 2 hours; ADP-Glo Max luminescence; read-out: SIK2 high ATP IC50 (μM) (Test Example 2)", "procedure": "as §1", "units": {"IC50": "µM"}}
{"smiles": "Cc1cnc(OC[C@@H]2CNCCO2)c(-c2ccn3nc(NC(=O)C4CC4)cc3c2)c1", "note": "[Example 474, N-[5-[5-methyl-2-[[(2S)-morpholin-2-yl]methoxy]-3-pyridyl]pyrazolo[1,5-a]pyridin-2-yl]cyclopropanecarboxamide]", "IC50": 0.0431}
{"smiles": "Cc1cc(-c2ccn3nc(Nc4cc(C)nc(N5CCOCC5)n4)cc3c2)c(OC[C@H]2OCC[C@@H]2O)cn1", "note": "[Example 294, (2R,3S)-2-[[6-methyl-4-[2-[(6-methyl-2-morpholino-pyrimidin-4-yl)amino]pyrazolo[1,5-a]pyridin-5-yl]-3-pyridyl]oxymethyl]tetrahydrofuran-3-ol]", "IC50": 0.0138}
{"smiles": "Cc1cc(-c2ccn3nc(Nc4cc(C)nc(C)n4)cc3c2)c(OC2CCC(C#N)CC2)cn1", "note": "(stereo not drawn) [Example 552, 4-[[4-[2-[(2,6-dimethylpyrimidin-4-yl)amino]pyrazolo[1,5-a]pyridin-5-yl]-6-methyl-3-pyridyl]oxy]cyclohexanecarbonitrile]", "IC50": 0.00378}
{"smiles": "Cc1cc(-c2ccn3nc(Nc4ccc5nccn5n4)cc3c2)c(OCC(C)(C)C#N)cn1", "note": "[Example 308, 3-[[4-[2-(imidazo[1,2-b]pyridazin-6-ylamino)pyrazolo[1,5-a]pyridin-5-yl]-6-methyl-3-pyridyl]oxy]-2,2-dimethyl-propanenitrile]", "IC50": 0.00171}
{"smiles": "Cc1cc(-c2ccn3nc(Nc4cc(C)nc(C(C)(C)C)n4)cc3c2)c(OCC(C)(C)O)cn1", "note": "[Example 261, 1-[[4-[2-[(2-tert-butyl-6-methyl-pyrimidin-4-yl)amino]pyrazolo[1,5-a]pyridin-5-yl]-6-methyl-3-pyridyl]oxy]-2-methyl-propan-2-ol]", "IC50": 0.0239}
{"smiles": "Cc1ncc(Nc2cc3cc(-c4cc(OC(F)F)ncc4OCC(C)(C)C#N)ccn3n2)cn1", "note": "[Example 641, 3-[[6-(difluoromethoxy)-4-[2-[(2-methylpyrimidin-5-yl)amino]pyrazolo[1,5-a]pyridin-5-yl]-3-pyridyl]oxy]-2,2-dimethyl-propanenitrile]", "IC50": 0.111}
{"smiles": "Cc1cc(-c2ccn3nc(Nc4cc(C)nc(C)n4)cc3c2)c(OC[C@H]2CCS(=O)(=O)C2)cn1", "note": "(single isomer, unassigned) [Example 363, (*R)—N-(2,6-dimethylpyrimidin-4-yl)-5-[5-[(1,1-dioxothiolan-3-yl)methoxy]-2-methyl-4-pyridyl]pyrazolo[1,5-a]pyridin-2-amine]", "IC50": 0.0035}
{"smiles": "CC#Cc1cc(-c2ccn3nc(NC(=O)C4CC4)cc3c2)c(O[C@H]2C[C@H](N)C2)cn1", "note": "[Example 435, N-(5-(5-((1r,3r)-3-aminocyclobutoxy)-2-(prop-1-yn-1-yl)pyridin-4-yl)pyrazolo[1,5-a]pyridin-2-yl)cyclopropanecarboxamide]", "IC50": "< 0.000847"}
{"smiles": "Cc1cc(-c2ccn3nc(Nc4cc(C)nc(C)n4)cc3c2)c(OC[C@]2(C)CCCO2)cn1", "note": "(single isomer, unassigned) [Example 232, (*S)—N-(2,6-dimethylpyrimidin-4-yl)-5-[2-methyl-5-[(2-methyltetrahydrofuran-2-yl)methoxy]-4-pyridyl]pyrazolo[1,5-a]pyridin-2-amine]", "IC50": 0.0245}
{"smiles": "CNc1nc(C)cc(Nc2cc3cc(-c4cc(Cl)ncc4OCC(C)(C)C#N)ccn3n2)n1", "note": "[Example 675, 3-[[6-chloro-4-[2-[[6-methyl-2-(methylamino)pyrimidin-4-yl]amino]pyrazolo[1,5-a]pyridin-5-yl]-3-pyridyl]oxy]-2,2-dimethyl-propanenitrile]", "IC50": 0.0391}
{"smiles": "Cc1cc(-c2ccn3nc(NC(=O)C4CC4)cc3c2)c(OC[C@]2(F)CCNC2)cn1", "note": "(single isomer, unassigned) [Example 448, (*S)—N-[5-[5-[(3-fluoropyrrolidin-3-yl)methoxy]-2-methyl-4-pyridyl]pyrazolo[1,5-a]pyridin-2-yl]cyclopropanecarboxamide]", "IC50": 0.0469}
{"smiles": "Cc1cc(-c2ccn3nc(Nc4ccn(C)n4)cc3c2)c(OCC2(N)CC(F)(F)C2)cn1", "note": "[Example 162, 5-[5-[(1-amino-3,3-difluoro-cyclobutyl)methoxy]-2-methyl-4-pyridyl]-N-(1-methylpyrazol-3-yl)pyrazolo[1,5-a]pyridin-2-amine]", "IC50": 0.0196}
{"smiles": "Cc1cc(-c2ccn3nc(Nc4cc(C)nc(C)n4)cc3c2)c(O[C@H]2C[C@H](N)C2)cn1", "note": "[Example 545, 5-(5-((1r,3r)-3-aminocyclobutoxy)-2-methylpyridin-4-yl)-N-(2,6-dimethylpyrimidin-4-yl)pyrazolo[1,5-a]pyridin-2-amine]", "IC50": 0.0134}
{"smiles": "Cc1cc(-c2ccn3nc(NC(=O)C4CC4)cc3c2)c(O[C@@H]2CCC[C@H](O)C2)cn1", "note": "(single isomer, unassigned) [Example 602, (1*R, 3*S)—N-[5-[5-(3-hydroxycyclohexoxy)-2-methyl-4-pyridyl]pyrazolo[1,5-a]pyridin-2-yl]cyclopropanecarboxamide]", "IC50": 0.113}
{"smiles": "Cc1cc(-c2ccn3nc(Nc4cc(C)nc(C)n4)cc3c2)c(OC[C@@H]2CC3(CCCC3)CO2)cn1", "note": "(single isomer, unassigned) [Example 219, (*S)—N-(2,6-dimethylpyrimidin-4-yl)-5-[2-methyl-5-(8-oxaspiro[4.4]nonan-7-ylmethoxy)-4-pyridyl]pyrazolo[1,5-a]pyridin-2-amine]", "IC50": 0.0497}
{"smiles": "Cc1cc(-c2ccn3nc(NC(=O)C4CC4)cc3c2)c(OCC2(C)CCN2C)cn1", "note": "(single isomer, unassigned) [Example 450, (*S)—N-[5-[5-[(1,2-dimethylazetidin-2-yl)methoxy]-2-methyl-4-pyridyl]pyrazolo[1,5-a]pyridin-2-yl]cyclopropanecarboxamide]", "IC50": 0.04}
{"smiles": "CO[C@@]1(COc2cnc(C)cc2-c2ccn3nc(NC(=O)C4CC4)cc3c2)CCNC1", "note": "(single isomer, unassigned) [Example 215, (*S)—N-[5-[5-[(3-methoxypyrrolidin-3-yl)methoxy]-2-methyl-4-pyridyl]pyrazolo[1,5-a]pyridin-2-yl]cyclopropanecarboxamide]", "IC50": 0.0037}
{"smiles": "Cc1cc(-c2ccn3nc(Nc4cc(C)nc(C)n4)cc3c2)c(OC[C@H]2C[C@H](C#N)C2)cn1", "note": "[Example 686, 3-[[4-[2-[(2,6-dimethylpyrimidin-4-yl)amino]pyrazolo[1,5-a]pyridin-5-yl]-6-methyl-3-pyridyl]oxymethyl]cyclobutanecarbonitrile]", "IC50": 0.0179}
